From patent US4591551A, “Radioenzymatic method for assaying normetanephrine and octopamine” (University of Southern California, priority 1984, dated 1986)

Legend:
[1] = target: T1, phenylethanolamine-N-methyl transferase (Bos taurus, UniProt P10938); experiment: Substrate specificity: cross reactivities of catecholamines and congeners in the radioenzymatic assay for plasma normetanephrine; type: biochemical, bovine; details: for % / Counts per Minute, Sample: 500 pg of amine added; for %: sample counts; for Counts per Minute, Sample: without normetanephrine internal standard, metanephrine band after TLC; for Percentage Interference: 500 pg of amine in assay for plasma normetanephrine; for Counts per Minute, Normetanephrine Standard: 500 pg of amine plus 250 pg of normetanephrine; for Normetanephrine: apparent normetanephrine from 500 pg of amine, calculated using 250 pg in the formula
T1 construct: PNMT was partially purified from bovine adrenal medulla; from tissue; host or cells: bovine adrenal medulla
T1 sequence (P10938 1-283): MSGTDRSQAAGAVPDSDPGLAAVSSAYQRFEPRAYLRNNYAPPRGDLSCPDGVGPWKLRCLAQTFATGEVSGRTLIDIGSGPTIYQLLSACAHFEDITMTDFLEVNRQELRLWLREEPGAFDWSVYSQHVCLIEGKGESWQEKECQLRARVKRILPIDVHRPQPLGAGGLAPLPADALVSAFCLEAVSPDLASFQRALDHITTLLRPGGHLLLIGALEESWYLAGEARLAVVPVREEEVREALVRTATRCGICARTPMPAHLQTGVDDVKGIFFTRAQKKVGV
Experimental: (§1) PNMT was partially purified from bovine adrenal medulla according to the method of Henry et al, supra. In accordance with that procedure, thirty-three grams of medullary tissue are dissected from 15 fresh bovine adrenals and homogenized in 280 ml of 1.19 percent KCl solution. The homogenate is centrifuged at 40,000 g for one hour and the supernatant is filtered and recentrifuged at 100,000 g for one hour. To 250 ml of the supernatant are added 5 ml of 0.05M sodium phosphate buffer, pH 7.5 and 44 gm of solid ammonium sulfate. Another 19.8 gm of ammonium sulfate per 100 ml are added. The supernatant is discarded and the precipitate resuspended in 100 ml of 55 percent saturated ammonium sulfate--0.0125M sodium phosphate. The solution is recentrifuged and for each 100 ml of supernatant, 17 gm of ammonium sulfate are added. After centrifugation, the precipitate is resuspended in 50 ml of 0.005M tris, pH 7.4, containing 0.1 mM dithiothreitol and dialyzed in four liters of the buffer with four changes in a 16 hour period. The dialyzed enzyme is then centrifuged at 40,000 g for 10 minutes and frozen in small aliquots.
Duplicate aliquots (20-50 microliters) of the processed specimens were transferred to disposable culture tubes (13×100 mm); 10 ul of deionized water was added to one and the same volume of normetanephrine standard solution (100 pm) was added to the other. Two tubes of 50 microliters of 0.001N NCl were used for blanks instead of plasma for each assay run. The enzymatic reaction was initiated by the addition of a mixture of 10 ul each of 0.5M tris-HCl with 12.5 mM EDTA (pH 10.0), diluted tritiated […] (SAM-H^3 at 1.25 microCurie) and phenylethanolamine-N-methyl transferase prepared as above. The pH of the incubation mixture was 9.2. The incubation was carried out for sixty minutes at 37° C. and terminated by cooling in an ice bath and the addition of 100 ul of 0.5M borate buffer (pH 10.0) containing 5 micromole of metanephrine to facilitate the location of chromotography bands.
Radioactive products were extracted into 3 ml of toluene isoamyl-alcohol mixture (3:2) by agitation on a vortex mixer. The organic layer was separated by centrifugation, transferred to another set of tubes after quick freezing of the aqueous layer in a dry ice acetone bath and subsequently washed by 50 microliter of 0.5M borate buffer (pH 10.0) with similar procedures. Then the organic layer was transferred to a 15 ml centrifuge tube and the N-methylated products were back-extracted to 130 microliter of 0.1N acetic acid. After centrifugation, the organic layer was aspirated off and 100 microliter of the acetic acid phase was spotted on a silica gel plate with a multiple spotter. Thin layer chromatography was carried out in the chamber using as a developing solvent a mixture of tertiary amyl-alcohol, methylamine (40%), benzene (6:3:2, total 73.5 ml) for ninety minutes, in accordance with the procedure of Peuler and Johnson, supra. Then the plate was dried immediately. The metanephrine spot was marked under ultraviolet light, scraped off with a knife and transferred to a plastic vial containing 1 ml of 1N NH4 OH. Ten mls of ScintiVerse (obtained from the Fisher Scientific Co.) was added and the vial was left to stand for at least one hour prior to counting in a liquid scintillation counter. The plasma normetanephrine concentration was calculated from the radioactivity according to the formula given above.
Assays were conducted as in Example I using the solvent system of that example but in which the sample contained 250 pg of normetanephrine and in which there was added to the incubation mixture in individual tubes 10 microliters of the respective reagent listed in Table II.

PNMT = experiment: Isomer preference of normetanephrine as substrate for PNMT; type: biochemical, bovine; details: vs dl-normetanephrine
Experimental: as §1
1-Normetanephrine is the preferred isomer as a substrate for PNMT and yielded about 1.5 times the activity of dl-normetanephrine. Thus, 1-normetanephrine should be used for calibration.

[2] = type: physicochemical
Experimental: Blood specimens were collected into commercial vactainer tubes containing 15 milligrams EDTA for 10 ml of blood and placed on ice immediately. After centrifugation at 4° C., exactly 1 ml of plasma was transferred to a 10 ml test tube and kept in the freezer at -20° C. until the assay was performed. In this condition, plasma normetanephrine is stable for at least 2 months.

[3] = target: T1, phenylethanolamine-N-methyl transferase; experiment: Radioenzymatic assay of octopamine in urine (counted as synephrine); type: biochemical, bovine
Experimental: The procedure of Examples I and II can be repeated but with the addition of 100 pg of octopamine in place of the 100 pg of normetanephrine as an internal standard, and by the addition of 5 micromole of unlabeled synephrine in place of the 5 micromole of metanephrine to facilitate chromatography band location. The pH of the incubation mixture is 9.3. The solvent system used is chloroform-ethanol-methylamine (40%) 16:3:2. In this case, synephrine bands are scraped into the scintillation vial and their counts per minute determined to yield the amount of octopamine, as synephrine.
A linear relationship was shown when octopamine was added either to urine or to water at 3-500 pg. Similarly, a linear relation was observed when both the synephrine and dimethyloctopamine were counted together after thin layer chromatography. These findings indicate that methylation of synephrine is proportioned to the added amount of octopamine and therefore validates the measurement of octopamine with this assay. When the synephrine was recovered from thin layer chromatography, it yielded a lower blank and therefore increased sensitivity. […] An additional wash with borate buffer (pH 10) and the use of chloroform-ethanol-methylamine as developing solvents further reduced the blank to a mean value of 56±7 cpm (N=13). Two and one-half octopamine in urine yields about 120-140 cpm. […]

counts yielded by octopamine in urine ([3]; One hundred pg of octopamine in urine)	counts yielded by octopamine in urine ([3]; Two and one-half octopamine in urine)	SMILES	% [1] [%]	Counts per Minute, Sample [1] [Counts per Minute]	Percentage Interference [1] [%]	Counts per Minute, Normetanephrine Standard [1] [Counts per Minute]	Normetanephrine [1] [pg]	activity as substrate for PNMT relative to dl-normetanephrine (PNMT)	plasma normetanephrine is stable [2]
		CNCC(O)c1ccc(O)c(OC)c1 (stereo not drawn) [Metanephrine, metanephrine]	2.9	180	0.7	6363	3.8		
		CNCC(O)c1ccc(O)cc1 (stereo not drawn) [Synephrine, synephrine]	4.2	262	1.5	6160	7.5		
		NC[C@H](O)c1ccc(O)c(O)c1 [Norepinephrine, norepinephrine]	1.6	101	0.1	6020	0.6		
		COc1cc([C@@H](O)CN)ccc1O [1-Normetanephrine]						about 1.5 times	
		NCCc1ccc(O)c(O)c1 [Dopamine, dopamine]	1.3	80	0	6130	0		
		NCCc1ccc(O)cc1 [Tyramine, tyramine]	1.3	81	0	6090	0		
		COc1cc(C(O)CN)ccc1O (stereo not drawn) [Normetanephrine, normetanephrine]							at least 2 months
		CNC[C@H](O)c1ccc(O)c(O)c1 [Epinephrine, epinephrine]	1.3	80	0	6124	0		
2,500-3,000 cpm	120-140 cpm	NCC(O)c1ccc(O)cc1 (stereo not drawn) [Octopamine, octopamine]	11.8	726	4.9	7261	24.5		
